These results are taken from patent publication US20090253706A1, “Methods and Compositions for the Treatment of Rheumatoid Arthritis and Other Inflammatory Diseases” (priority 2008, published 2009).

Format in all cases: in vivo
The subject of test [1] is anti-glucose-6-phosphate isomerase (GPI) Ig. The experiment in a line: Serum anti-GPI Ig titer in treated K/BxN mice. Particulars: FIG. 2A; IgM and IgG isotypes, vs carrier alone. From the text: (§1) FIG. 2A is a graph of the titer of serum anti-glucose-6-phosphate isomerase (GPI) IgM and IgG isotypes from K/BxN mice treated with 1-methyl-tryptophan or carrier alone. FIG. 2B is a graph of the number of anti-GPI secreting cells per 10^5 cells present in the spleen, draining lymph nodes (dLN), and non-draining lymph nodes (non-dLN) of K/BxN mice treated with 1-methyl-tryptophan or carrier alone.
(§2) K/BxN mice produce arthritogenic Abs directed against GPI, which develop at high titers because of the preferential help that B cells expressing GPI-specific immunoglobulins receive from GPI-reactive T cells displaying the transgene-encoded TCR.

The test system of test [2] is anti-GPI antibody secreting cells. The experiment in a line: Anti-GPI antibody secreting cells in spleen and lymph nodes of treated K/BxN mice. Particulars: FIG. 2B; spleen, draining lymph nodes (dLN), non-draining lymph nodes (non-dLN), vs carrier alone.
Source text: as §1, §2

The next test deals with K/BxN mice. The experiment in a line: Arthritis prevention in K/BxN mice, treatment from weaning, rear ankle thickness. An excerpt:
K/BxN TCR transgenic mice express a TCR reactive to a self-peptide derived from the glucose-6-phosphate isomerase (GPI), presented by the MHC class II molecule A^g7 (Korganow et al. (1999) Immunity, 10:451-461; Kouskoff et al. (1996) Cell, 87:811-822; Matsumoto et al. (1999) Science, 286:1732-1735). K/BxN mice spontaneously develop a very aggressive form of arthritis at 3 to 4 weeks of age. […] The arthritis experienced by K/BxN mice is joint specific and allows for the scoring of the arthritis by caliper measurement of ankle thickness (Korganow et al. (1999) Immunity, 10:451-461; Ji et al. (2001) J. Exp. Med., 194:321-330).
Starting at weaning (21 days of age) K/BxN mice were administered 400 mg/kg of 1-methyl-D-tryptophan, 400 mg/kg of 1-methyl-L-tryptophan, or carrier alone b.i.d. (twice daily) by p.o. (oral) gavage.
Mice were given 400 mg/kg/dose (100 μl total volume) of D/L-1MT or D-1MT diluted in METHOCEL™/Tween® (0.5% Tween 80, 0.5% methylcellulose (v/v in water) twice daily by oral gavage (p.o.) using a curved feeding needle as described (Muller et al. (2005) Nat. Med., 11:312-319). 1MT was administered on a b.i.d. schedule, once in the morning and once in the evening. Methotrexate (MTX) was diluted in 0.5% carboxymethyl cellulose and administered by oral gavage at a range of doses 1-25 mg/kg/dose (0.1 cc/20 g mouse) using a curved feeding needle. The mice were given one dose per week as described (Asanuma et al. (2002) Eur. J. Pharmacol., 435:253-258). Control mice were given an equal volume of carrier alone (METHOCEL™/Tween®).
For the arthritis prevention experiments, MTX and/or 1MT treatment was started on the day of weaning (age 21 days). For the treatment of established arthritis, MTX and/or 1MT was administered after the mice had measurable arthritis.
The two rear ankles of MTX, 1MT, MTX+1 MT, or carrier-treated K/BxN mice were measured starting at weaning (3 wk of age) as described (Mandik-Nayak et al. (2002) Proc. Natl. Acad. Sci., 99:14368-14373). Measurement of ankle thickness was made above the footpad axially across the ankle joint using a Fowler Metric Pocket Thickness Gauge.

Where [3] appears, read: Example 1, FIG. 1, 400 mg/kg b.i.d. p.o. from 21 days of age, vs carrier alone.
Where [4] appears, read: Example 2, FIG. 3, 400 mg/kg p.o. b.i.d. from 21 days, n=5.
Where [5] appears, read: FIG. 4, MTX 1, 10 or 25 mg/kg weekly p.o. from 3 weeks of age, increasing amounts.

For `Cn1cc(C[C@H](N)C(=O)O)c2ccccc21` (racemic) [1-MT, 1-methyl-tryptophan], in test [1], the “levels of serum anti-GPI Ig” value is “reduced levels of serum anti-GPI Ig”. In addition, the “numbers of anti-GPI antibody secreting cells” value in test [2] is on record as “reduced numbers of anti-GPI antibody secreting cells”.
Take `Cn1cc(C[C@@H](N)C(=O)O)c2ccccc21` [1-methyl-D-tryptophan]: in the test on K/BxN mice (setting [3]), the “degree of arthritis (mean ankle thickness)” value was “greatly reduced the degree of arthritis” and the onset of arthritis result was “delayed the onset of arthritis”. Also, in the test with K/BxN mice (setting [4]), the “degree of arthritis (mean ankle thickness)” value is “reduced the degree of arthritis” and the onset of arthritis entry is listed as “delayed the onset of arthritis”. In addition, the arthritis development entry in the test on K/BxN mice (FIG. 3 legend, 400 mg/kg p.o. b.i.d. from 21 days) is “inhibits arthritis development”.
On to `Cn1cc(CC(N)C(=O)O)c2ccccc21` [1-methyl-D/L-tryptophan], for which, in the test on K/BxN mice (setting [4]), the “degree of arthritis (mean ankle thickness)” value is “reduced the degree of arthritis” and the onset of arthritis entry is given as “delayed the onset of arthritis”.
Take `Cn1cc(C[C@H](N)C(=O)O)c2ccccc21` [1-methyl-L-tryptophan]: in the test with K/BxN mice (setting [3]), the “degree of arthritis (mean ankle thickness)” value is listed as “greatly reduced the degree of arthritis” and the onset of arthritis result was “delayed the onset of arthritis”.
`CN(Cc1cnc2nc(N)nc(N)c2n1)c1ccc(C(=O)N[C@@H](CCC(=O)O)C(=O)O)cc1` [MTX, methotrexate]: in the test on K/BxN mice (setting [5]), the degree of arthritis entry is reported as “reduced the degree of arthritis” and the onset of arthritis result was “inhibited the onset of arthritis”. Moreover, the arthritis development entry in the test on K/BxN mice (FIG. 4 legend, MTX 1, 10 or 25 mg/kg weekly p.o. from 3 weeks of age) is listed as “dose-dependent inhibition of arthritis development”.
